# Read-outs that look alike come from different tables or passages of the source.
# How the values were obtained:
# [1] = target: T1, BoNT/A LC (Clostridium botulinum, UniProt P0DPI0); assay: biochemical; assay type: biochemical
# [2] = target: T1, BoNT/A LC; assay: biochemical; details: read-out: inhibited BoNT/A LC activity
# [3] = test system: BoNT/A1 cleavage of SNAP-25 in hiPSC-derived motor neurons; assay: cells; assay type: cell-based, human
# [4] = target: BoNT/A LC WT (Clostridium botulinum, UniProt P0DPI0); assay type: binding
# BoNT/A LC WT, sequence (P0DPI0 2-448 limits assumed): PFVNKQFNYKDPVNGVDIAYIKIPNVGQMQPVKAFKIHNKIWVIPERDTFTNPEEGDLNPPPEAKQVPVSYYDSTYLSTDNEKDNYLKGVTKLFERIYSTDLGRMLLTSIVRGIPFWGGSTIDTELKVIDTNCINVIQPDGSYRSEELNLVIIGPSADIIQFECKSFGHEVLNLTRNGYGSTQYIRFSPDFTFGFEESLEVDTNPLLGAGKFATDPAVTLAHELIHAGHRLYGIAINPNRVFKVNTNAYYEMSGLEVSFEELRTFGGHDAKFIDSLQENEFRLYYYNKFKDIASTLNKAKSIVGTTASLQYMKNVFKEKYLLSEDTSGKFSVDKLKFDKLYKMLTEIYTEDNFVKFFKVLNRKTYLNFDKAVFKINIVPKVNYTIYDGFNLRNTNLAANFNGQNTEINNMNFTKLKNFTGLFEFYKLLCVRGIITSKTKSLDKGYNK
# [5] = target: T1, BoNT/A LC; assay: biochemical
# T1 sequence (P0DPI0 2-448 limits assumed): as above
Compound,IC50 [1],covalent adduct formation by HRMS (in words) [4],protection of SNAP-25 (in words) [3],inhibition of SNAP-25 cleavage (in words) [3],also measured
O=C(O)C1CNCCN(Cc2cc(=O)n3cccc(O)c3n2)C1 (centres unmarked) [Compound 1],7400 ± 500 nM,,,,inhibition at 40 µM [2]: > 90%
"O=c1cc(CNCc2ccc(-c3ccccc3)cc2)nc2c(O)cccn12 [Compound 27, 2-((([1,1′-biphenyl]-4-ylmethyl)amino)methyl)-9-hydroxy-4H-pyrido [1,2-a]pyrimidin-4-one]",300 ± 100 nM,Neither of the reversible compounds 2 and 27 showed any change in mass,,,"Ki [1]: 150 nM; potency compared to 2 (in words) [1]: significantly increased inhibitory potency; IC50 ([3]; Homo sapiens, Neuron, 0.5 h): 13000 nM"
"CS(=O)(=O)SCCCCCc1ccn2c(=O)cc(CNCc3ccc(-c4ccccc4)cc3)nc2c1O [Compound 82, S-(6-(2-((([1,1′-biphenyl]-4-ylmethyl)amino)methyl)-9-hydroxy-4-oxo-4H-pyrido [1,2-a]pyrimidin-8-yl)pentyl) methanesulfonothioate]",,an increase in mass matching two covalent adducts,,,Ki [5]: 1870 ± 110 nM; kinact [5]: 0.0024 ± 0.0002 s⁻¹; kinact/KI [5]: 1260 ± 130 M⁻¹ s⁻¹
"O=c1cc(CN2CCc3cc(Cl)ccc32)nc2c(O)cccn12 [Compound 47, 2-((5-Chloroindolin-1-yl)methyl)-9-hydroxy-4H-pyrido [1,2-a]pyrimidin-4-one]",900 ± 600 nM,,protect against SNAP-25 cleavage,,
"O=c1cc(CNCc2cccc(Cl)c2)nc2c(O)cccn12 [Compound 18, 2-(((3-Chlorobenzyl)amino)methyl)-9-hydroxy-4H-pyrido [1,2-a]pyrimidin-4-one]",1700 ± 300 nM,,,neither 2 nor 18 inhibited the cleavage of SNAP-25,
"O=c1cc(CNCc2ccccc2)nc2c(O)cccn12 [Compound 2, 2-((Benzylamino)methyl)-9-hydroxy-4H-pyrido [1,2-a]pyrimidin-4-one]",900 ± 200 nM,Neither of the reversible compounds 2 and 27 showed any change in mass,,neither 2 nor 18 inhibited the cleavage of SNAP-25,fold more potent than initial lead 1 [1]: approximately seven-fold
"O=c1cc(COCc2cccc(F)c2)nc2c(O)cccn12 [Compound 32, 2-(((3-Fluorobenzyl)oxy)methyl)-9-hydroxy-4H-pyrido [1,2-a]pyrimidin-4-one]",11000 ± 1000 nM,,nearly complete protection of SNAP-25,,less potent than 2 in the enzyme assay [1]: ~10 fold
"O=C(O)c1ccc2c(c1)N(Cc1cc(=O)n3cccc(O)c3n1)CC2 [Compound 54, 1-((9-Hydroxy-4-oxo-4H-pyrido [1,2-a]pyrimidin-2-yl)methyl)indoline-6-carboxylic acid]",1200 ± 100 nM,,protect against SNAP-25 cleavage,,
"O=c1cc(COCc2cccc(Cl)c2)nc2c(O)cccn12 [Compound 35, 2-(((3-Chlorobenzyl)oxy)methyl)-9-hydroxy-4H-pyrido [1,2-a]pyrimidin-4-one]",7500 ± 500 nM,,,did not have any apparent effect on SNAP-25 cleavage,
